Test results from publication PMC10537738, “Antiviral Effect of 5′-Arylchalcogeno-3-aminothymidine Derivatives in SARS-CoV-2 Infection” (Molecules, 2023).
Like-named read-outs stand apart in the source and are kept apart here.

Tests used:
SARS-CoV-2 [1] = test: microbe, parasite or virus in culture; assay type: cell-based
in vitro [2] = details: human
in vitro [3] = details: African green monkey
SARS-CoV-2 [4] = test: SARS-CoV-2 replication inhibition in Vero E6 cells (PFU titration); details: for EC50: read-out: EC50 24 h, Vero E6, MOI 0.01, 24 hpi; for inhibition of SARS-CoV-2 replication: Vero E6, 24 hpi, 10 µM
SARS-CoV-2 [5] = test system: SARS-CoV-2; set-up: method as in PMID 33880524; details: Calu-3-based assays, 48 hpi; cited from earlier work
[6] = Cytotoxicity assay, methylene blue staining, Calu-3; details: human
SARS-CoV-2 [7] = details: cell model not given; read-out: estimated EC50; cited from earlier work
SARS-CoV-2 [8] = test system: SARS-CoV-2; set-up: method as in PMID 32759267; details: infected Vero E6 cells; cited from earlier work
[9] = Severe acute respiratory syndrome coronavirus 2, Calu-3, 24 h, read-out: EC50 24 h, Calu-3, MOI 0.01, 24 hpi
[10] = Severe acute respiratory syndrome coronavirus 2, Calu-3, read-out: inhibition of coronavirus replication
[11] = read-out: EC50 24 h, Calu-3, MOI 0.01, 24 hpi
[12] = Severe acute respiratory syndrome coronavirus 2, Calu-3, 48 h, read-out: EC50 48 h, Calu-3, MOI 0.01, 48 hpi
[13] = read-out: EC50 48 h, Calu-3, MOI 0.01, 48 hpi
[14] = Severe acute respiratory syndrome coronavirus 2, 24 h, Calu-3, MOI 0.01, 24 hpi, read-out: EC50 24 h
[15] = Severe acute respiratory syndrome coronavirus 2, 48 h, Calu-3, MOI 0.01, 48 hpi, read-out: EC50 48 h

Row | SMILES | EC50 (SARS-CoV-2 [1]; [9]) [µM] | CC50 (in vitro [2]) [µM] | CC50 (in vitro [3]) [µM] | EC50 (SARS-CoV-2 [4]) [µM] | EC50 (SARS-CoV-2 [1]; [12]) [µM] | other results
1 | Cc1cn([C@H]2C[C@H](N)[C@@H](C[Te]c3cccc4ccccc34)O2)c(=O)[nH]c1=O [R3q] | ≤ 2 | 34.3 ± 10.2 | 33.6 ± 6.9 | 4.21 ± 0.43 |  | inhibition at 10 µM (SARS-CoV-2 [1]; [10]): > 95%; EC50 (SARS-CoV-2 [1]; [11]): 2.03 ± 0.32 µM; melting point: 134.1 to 135.6 °C
2 | Cc1ccc([Te]C[C@H]2O[C@@H](n3cc(C)c(=O)[nH]c3=O)C[C@@H]2N)cc1 [R3n] | ≤ 2 | 68.7 ± 11.4 | 60.1 ± 4.4 | 6.1 ± 0.41 | ≤ 2.57 | inhibition at 10 µM (SARS-CoV-2 [1]; [10]): > 95%; EC50 (SARS-CoV-2 [1]; [11]): 1.18 ± 0.61 µM; EC50 (SARS-CoV-2 [1]; [13]): 2.57 ± 0.62 µM
3 | Cc1ccc([Se]C[C@H]2O[C@@H](n3cc(C)c(=O)[nH]c3=O)C[C@@H]2N)cc1 [R3b] | 3.82 ± 1.42 | > 200 | > 200 | 2.97 ± 0.62 | 1.33 ± 0.35 | inhibition at 10 µM (SARS-CoV-2 [1]; Severe acute respiratory syndrome coronavirus 2, Calu-3, read-out: inhibition of viral replication): 95%
4 | Cc1cn([C@H]2C[C@H](N)[C@@H](CSc3ccccc3)O2)c(=O)[nH]c1=O [R3r] |  |  |  |  |  | EC50 (SARS-CoV-2 [1]; [14]): > 10 µM; EC50 (SARS-CoV-2 [1]; [15]): > 10 µM; CC50 at 72 h (in vitro [2]): > 200 µM
5 | COC(=O)N[C@H](C(=O)N1CCC[C@H]1c1nc(-c2ccc(-c3ccc(-c4c[nH]c([C@@H]5CCCN5C(=O)[C@@H](NC(=O)OC)C(C)C)n4)cc3)cc2)c[nH]1)C(C)C [daclatasvir] |  |  |  |  |  | EC50 (SARS-CoV-2 [5]): 1.1 ± 0.3 µM
6 | COc1ccc([Se]C[C@H]2O[C@@H](n3cc(C)c(=O)[nH]c3=O)C[C@@H]2N)cc1 [R3c] | 5.17 ± 0.81 | > 200 | > 200 | 3.31 ± 0.92 | 3.43 ± 1.52 | 
7 | Cc1cn([C@H]2C[C@H](N=[N+]=[N-])[C@@H](CO)O2)c(=O)[nH]c1=O [AZT, azidothymidine, reference compound] |  |  |  |  |  | EC50 (SARS-CoV-2 [1]; [14]): > 10 µM; EC50 (SARS-CoV-2 [1]; [15]): > 10 µM; CC50 at 72 h [6]: > 200 µM
8 | CC(C)C(=O)OC[C@H]1O[C@@H](n2ccc(NO)nc2=O)[C@H](O)[C@@H]1O [molnupiravir] |  |  |  |  |  | EC50 (SARS-CoV-2 [7]): 1.97 µM
9 | COc1ccc([Te]C[C@H]2O[C@@H](n3cc(C)c(=O)[nH]c3=O)C[C@@H]2N)cc1 [R3o] | 6.18 ± 2.05 | 30.7 ± 5.6 | 39.9 ± 4.4 | 4.95 ± 0.64 | ≤ 2.57 | EC50 (SARS-CoV-2 [1]; [13]): 1.99 ± 1.73 µM
10 | Cc1cn([C@H]2C[C@H](N)[C@@H](C[Te]c3ccc(Cl)cc3)O2)c(=O)[nH]c1=O [R3p] | 4.33 ± 1.03 | 35.2 ± 7.5 | 49.7 ± 7.5 | 4.89 ± 0.52 | 12.7 ± 1.74 | inhibition of SARS-CoV-2 replication (SARS-CoV-2 [4]): approximately 95%
11 | Cc1cn([C@H]2C[C@H](N)[C@@H](C[Se]c3ccccc3)O2)c(=O)[nH]c1=O [R3a] | 6.37 ± 0.58 | > 200 | > 200 | 2.25 ± 0.43 | 3.67 ± 1.57 | 
12 | Cc1cn([C@H]2C[C@H](N)[C@@H](C[Se]c3cccc4ccccc34)O2)c(=O)[nH]c1=O [R3e] | ≤ 2 | 156 ± 5 | > 200 | 1.99 ± 0.42 | ≤ 2.57 | inhibition at 10 µM (SARS-CoV-2 [1]; [10]): > 95%; EC50 (SARS-CoV-2 [1]; [11]): 1.92 ± 0.43 µM; EC50 (SARS-CoV-2 [1]; [13]): 2.31 ± 0.54 µM; inhibition of SARS-CoV-2 replication (SARS-CoV-2 [4]): approximately 95%
13 | Cc1cn([C@H]2C[C@H](N)[C@@H](C[Se]c3ccc(Cl)cc3)O2)c(=O)[nH]c1=O [R3d] | 8.29 ± 0.82 | > 200 | 98.8 ± 11.7 | 1.23 ± 0.54 | ≤ 2.57 | EC50 (SARS-CoV-2 [1]; [13]): 2.17 ± 0.64 µM
14 | COC(=O)N[C@H](C(=O)N[C@@H](Cc1ccccc1)[C@@H](O)CN(Cc1ccc(-c2ccccn2)cc1)NC(=O)[C@@H](NC(=O)OC)C(C)(C)C)C(C)(C)C [atazanavir] |  |  |  |  |  | EC50 (SARS-CoV-2 [8]): 2 ± 0.12 µM
15 | Cc1cn([C@H]2C[C@H](N)[C@@H](C[Te]c3ccccc3)O2)c(=O)[nH]c1=O [R3f] | ≤ 2 | 44.6 ± 8.3 | 52.1 ± 12.7 | 2.67 ± 0.63 | 4.86 ± 1.31 | inhibition at 10 µM (SARS-CoV-2 [1]; [10]): > 95%; inhibition of SARS-CoV-2 replication (SARS-CoV-2 [4]): approximately 95%
